Data reported in patent publication US5198424A, “Functionally active selectin-derived peptides” (Board of Regents of the University of Oklahoma, priority 1992, dated 1993).
Where two headings read alike, the source gives them in different places. Ends that are not written are not given here.

B1: GMP-140: granule membrane protein 140, isolated from human platelet lysates by immunoaffinity and ion-exchange chromatography (protein, UniProt P16109 42-830, looked up)
P-selectin: WTYHYSTKAYSWNISRKYCQNRYTDLVAIQNKNEIDYLNKVLPYYSSYYWIGIRKNNKTWTWVGTKKALTNEAENWADNEPNNKRNNEDCVEIYIKSPSAPGKWNDEHCLKKKHALCYTASCQDMSCSKQGECLETIGNYTCSCYPGFYGPECEYVRECGELELPQHVLMNCSHPLGNFSFNSQCSFHCTDGYQVNGPSKLECLASGIWTNKPPQCLAAQCPPLKIPERGNMTCLHSAKAFQHQSSCSFSCEEGFALVGPEVVQCTASGVWTAPAPVCKAVQCQHLEAPSEGTMDCVHPLTAFAYGSSCKFECQPGYRVRGLDMLRCIDSGHWSAPLPTCEAISCEPLESPVHGSMDCSPSLRAFQYDTNCSFRCAEGFMLRGADIVRCDNLGQWTAPAPVCQALQCQDLPVPNEARVNCSHPFGAFRYQSVCSFTCNEGLLLVGASVLQCLATGNWNSVPPECQAIPCTPLLSPQNGTMTCVQPLGSSSYKSTCQFICDEGYSLSGPERLDCTRSGRWTDSPPMCEAIKCPELFAPEQGSLDCSDTRGEFNVGSTCHFSCDNGFKLEGPNNVECTTSGRWSATPPTCKGIASLPTPGVQCPALTTPGQGTMYCRHHPGTFGFNTTCYFGCNAGFTLIGDSTLSCRPSGQWTAVTPACRAVKCSELHVNKPIAMNCSNLWGNFSYGSICSFHCLEGQLLNGSAQTACQENGHWSTTVPTCQAGPLTIQEALTYFGGAVASTIGLIMGGTLLALLRKRFRQKDDGKCPLNPHSHLGTYGVFTNAAFDPSP

How the values were obtained:
GMP-140 [1] = molecular target: T1, GMP-140 (Homo sapiens, UniProt P16109); experiment: ELISA of binding of biotinylated monoclonal antibodies G1, G2, G3 to immobilized GMP-140 with soluble peptide; set-up: from tissue; host or cells: outdated human platelet packs (platelet lysate); conditions: peptide 1.5 mM; for remaining activity at 1500 µM: 2 h
T1 sequence (P16109 42-830): B1 P-selectin
Experimental: Based on competitive ELISAs with the purified protein, G1, G2, and G3 each recognize distinct or only partially overlapping epitopes. 1.5 mM peptide was added to biotinylated mAb at a concentration of 2.5 micrograms/ml, which were then added to the wells containing GMP-140, as described in example 1. Binding was measured by an ELISA with an avidin detection system.
The monoclonal antibodies were biotinylated as follows: to 0.5 ml of purified IgG antibody (1 mg/ml in PBS, pH 7.4) was added 50 μl of 3.2 mM N-hydroxysuccinimide biotin in dimethyl sulfoxide and 50 μl of 1 M NaHCO3. After a 2 hour incubation at room temperature in the dark, the reaction was stopped with 50 μl of 1 M NH4 Cl. The biotinylated antibody was then separated from other components by gel filtration on a PD-10 column equilibrated in PBS. The ELISA was performed as follows; all steps were performed at room temperature.
Biotinylated antibody (2.5 μg/ml) with or without 1.5 mM peptide was incubated with wells coated with GMP-140 as described in example 1. After a 2 hour incubation, the antibody was removed, the wells were washed, and 0.1 ml of horseradish peroxidase-conjugated stepavidin (Pierce), diluted 1:1000 in HBSS/HSA, was added for 30 min. The wells were then washed and 0.1 ml of peroxidase substrate (Pierce) was added for 15 min. The color reaction was read at 405 nm.

GMP-140 [2] = molecular target: T1, GMP-140; experiment: Neutrophil adhesion to purified GMP-140 immobilized on plastic wells (myeloperoxidase readout); type: cell-based; set-up: from tissue; host or cells: outdated human platelet packs (platelet lysate); conditions: for % Bound (neutrophils bound to immobilized GMP-140 in the presence of GMP-140-derived peptide): peptide 1.5 mM, cells bound with control C-terminal peptide 761-777 normalized to 100%
Description: Peptides were screened for their ability to inhibit neutrophil adhesion to purified GMP-140 immobilized on plastic wells, using the assay described by Geng, et al., Nature 343, 757-760 (1990).
Human neutrophils are isolated from heparinized whole blood by density gradient centrifugation on Mono-Poly resolving media, Flow Laboratories. Neutrophil suspensions are greater than 98% pure and greater than 95% viable by trypan blue exclusion. For adhesion assays, neutrophils are suspended at a concentration of 2×10^6 cells/ml in Hanks' balanced salt solution containing 1.26 mM Ca^2+ and 0.81 mM Mg^2+ (HBSS, Gibco) with 5 mg/ml human serum albumin (HBSS/HSA). Adhesion assays are conducted in triplicate in 96-well microtiter plates, Corning, incubated at 4° C. overnight with 50 microliters of various protein solutions.
GMP-140 is plated at 5 micrograms/ml and the control proteins: human serum albumin (Alb), platelet glycoprotein IIb/IIIa (IIb), von Willebrand factor (vWF), fibrinogen (FIB), thrombomodulin (TM), gelatin (GEL) or human serum (HS), are added at 50 micrograms/ml. All wells are blocked for 2 h at 22° C. with 300 microliters HBSS containing 10 mg/ml HSA, then washed three times with HBSS containing 0.1% Tween-20 and once with HBSS. Cells (2×10^5 per well were added to the wells and incubated at 22° C. for 20 min. The wells were then filled with HBSS/HSA, sealed with acetate tape (Dynatech), and centrifuged inverted at 150 g for 5 min. After discarding nonadherent cells and supernates, the contents of each well are solubilized with 200 microliters 0.5% hexadecyltrimethylammonium bromide, Sigma, in 50 mM potassium phosphate, pH 6.0, and assayed for myeloperoxidase activity, Ley, et al., Blood 73, 1324-1330 (1989). The number of cells bound was derived from a standard curve of myeloperoxidase activity versus numbers of cells. Under all assay conditions, the cells released less than 5% of total myeloperoxidase and lactate dehydrogenase. Results are presented in Table I. 100% adhesion is that seen in the presence of the C-terminal peptide (amino acid residues 761-777 of GMP-140) as a negative control; this value is the same as controls in which neither peptide nor antibody is added to the cells. Inhibition is read as a lower percent adhesion, so that a value of 5% mean that 95% of the specific adhesion was inhibited.
Peptides from the lectin-like domain of GMP-140 were assayed for their ability to inhibit adhesion of neutrophils to immobilized GMP-140 in the assay described in example 1. Concentrations tested ranged from 0.1 mM to 1.5 mM.

human neutrophils = experiment: Binding of 125I[GMP-140] to human neutrophils
Description: This receptor is believed to be a glycoprotein containing sialic acid and other oligosaccharides that are recognized by the lectin domain of GMP-140. Using the assay described in example 1, and an assay in which ^125 I[GMP-140] binds specifically, saturably and reversibly to human neutrophils, as described by Moore and McEver, Clin.Res. 38, 364A (1990), certain critical structural features of the ligand (or, perhaps more accurately, "counter-receptor") for GMP-140 on human neutrophils have been defined.

GMP-140 [3] = molecular target: T1, GMP-140; experiment: Binding of stimulated platelets to neutrophils in the presence of Ca2+; type: cell-based; set-up: GMP-140 also mediates adhesion of neutrophils to stimulated platelets; endogenous in cells; host or cells: stimulated platelets

| Molecule | % Binding of Biotinylated MAbs G1 (GMP-140 [1]; mAb G1 2.5 micrograms/ml) | % Binding of Biotinylated MAbs G2 (GMP-140 [1]; mAb G2 2.5 micrograms/ml) | % Binding of Biotinylated MAbs G3 (GMP-140 [1]; mAb G3 2.5 micrograms/ml) | % Bound (neutrophils bound to immobilized GMP-140 in the presence of GMP-140-derived peptide) (GMP-140 [2]) | further results |
| --- | --- | --- | --- | --- | --- |
| RKNNKTWTWVGTKKALTNE [54-72] | 106% | 125% | 104% | 15% | – |
| CQNRYTDLVAIQ [19-30] | – | – | 54% | 12% | – |
| CQNRYTDLVAIQNKNE [19-34] | 23% | 26% | 24% | 5% | – |
| KDDGKCPLNPHSHLGTY [C-TERMINUS 761-777, reference compound] | – | – | – | 100% | remaining activity at 1500 µM (GMP-140 [1]; mAb G1 2.5 micrograms/ml, read-out: % Binding of Biotinylated MAbs G1): 100%; remaining activity at 1500 µM (GMP-140 [1]; mAb G2 2.5 micrograms/ml, read-out: % Binding of Biotinylated MAbs G2): 100%; remaining activity at 1500 µM (GMP-140 [1]; mAb G3 2.5 micrograms/ml, read-out: % Binding of Biotinylated MAbs G3): 100% |
| neuraminidase: neuraminidase purified from Vibrio cholera [reference compound] | – | – | – | – | binding of 125I[GMP-140] to human neutrophils (in words) (human neutrophils): abolished; adhesion of neutrophils to immobilized GMP-140 after treatment of neutrophils (in words) (GMP-140 [2]; neutrophils treated with the enzyme): abolished |
| AENWADNEPNNKRNNED [73-89] | 95% | 99% | 94% | 22% | – |
| B1 | – | – | – | – | binding of platelets to neutrophils (GMP-140 [3]): inhibited |
